Laboratory results published in paper PMC7044277 (Nature Communications, 2020).
“And” between values parts separate entries of the source, which are not always exact repeats. Identical values can stand only once.

How the values were obtained:
[1] = biological target: 320 non-olfactory GPCRs (Homo sapiens, UniProt P25103); type: cell-based; set-up: GPCRome screening signal at PTGIR / GPCRome screening signal at PTH1R / GPCRome screening signal at PTH2R / GPCRome screening signal at QRFP / GPCRome screening signal at RXFP2 / GPCRome screening signal at RXFP3 / GPCRome screening signal at RXFP4 / GPCRome screening signal at S1PR2 / GPCRome screening signal at S1PR3 / GPCRome screening signal at S1PR4 / GPCRome screening signal at S1PR5 / GPCRome screening signal at SCTR / GPCRome screening signal at SSTR2 / GPCRome screening signal at SSSTR / GPCRome screening signal at SSTR4 / GPCRome screening signal at SSTR5 / GPCRome screening signal at SUCNR1 / GPCRome screening signal at TA1 / GPCRome screening signal at TAAR2 / GPCRome screening signal at TAAR5 / GPCRome screening signal at TAAR6 / GPCRome screening signal at TAAR8 / GPCRome screening signal at TACR1 / GPCRome screening signal at TACR2 / GPCRome screening signal at TACR3 / GPCRome screening signal at TBXA2R / GPCRome screening signal at TSHR / GPCRome screening signal at UTS2R / GPCRome screening signal at VIPR2 / GPCRome screening signal at GPR68 no V2 Tail / GPCRome screening signal at GRM2 / GPCRome screening signal at GRM3: reference not given here; settings: receptor TACR1;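 as to GPCRome agonism screen response: fold over basal response of each receptor without drug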
Chain of 320 non-olfactory GPCRs (P25103 whole entry): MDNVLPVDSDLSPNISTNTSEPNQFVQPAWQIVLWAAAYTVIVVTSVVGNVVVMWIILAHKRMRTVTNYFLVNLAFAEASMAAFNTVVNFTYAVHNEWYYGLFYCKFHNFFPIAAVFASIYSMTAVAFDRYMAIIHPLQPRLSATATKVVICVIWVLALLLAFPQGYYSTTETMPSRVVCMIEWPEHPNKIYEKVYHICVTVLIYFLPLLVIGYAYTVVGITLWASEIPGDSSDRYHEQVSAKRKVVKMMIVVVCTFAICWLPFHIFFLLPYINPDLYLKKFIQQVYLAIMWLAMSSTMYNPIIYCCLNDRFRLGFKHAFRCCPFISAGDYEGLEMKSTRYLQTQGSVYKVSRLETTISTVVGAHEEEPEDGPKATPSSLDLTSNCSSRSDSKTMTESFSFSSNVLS

[2] = biological target: DRD2 (D2 long receptor) (Homo sapiens, UniProt P14416); assay: Gαi1-γ2 dissociation BRET assay, HEK293T; type: cell-based; settings: agonist
Chain of DRD2 (D2 long receptor) (P14416 whole entry): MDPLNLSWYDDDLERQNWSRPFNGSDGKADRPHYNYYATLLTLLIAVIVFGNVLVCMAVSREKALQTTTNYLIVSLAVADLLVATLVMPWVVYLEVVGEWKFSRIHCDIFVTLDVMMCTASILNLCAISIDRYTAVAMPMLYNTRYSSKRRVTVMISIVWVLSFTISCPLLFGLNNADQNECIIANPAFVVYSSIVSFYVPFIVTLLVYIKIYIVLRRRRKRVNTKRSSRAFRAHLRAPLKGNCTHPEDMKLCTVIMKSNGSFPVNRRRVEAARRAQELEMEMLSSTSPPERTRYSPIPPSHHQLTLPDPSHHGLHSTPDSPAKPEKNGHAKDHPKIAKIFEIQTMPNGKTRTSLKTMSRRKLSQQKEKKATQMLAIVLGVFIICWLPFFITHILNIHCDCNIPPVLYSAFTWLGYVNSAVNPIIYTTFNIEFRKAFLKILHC

| SMILES | GPCRome screening signal at TACR1 ([1]; Fig_5f, single replicate values) | GPCRome agonism screen response ([1]; replicate values, Fig_4g) | EC50 [2] [nM] |
| --- | --- | --- | --- |
| CCOc1ccccc1CCC(C)NCC1(O)CCCCC1.Cl (racemic) [Fig_5f] | 1.29 and 1.225 and 0.9839 and 1.172 | – | – |
| CCOc1cccc2cc(C(C)NCC3(O)CCCCC3)oc12 (stereo not drawn) [O4LE6] | – | 1.178 and 0.9848 and 1.177 and 1.1855 | 24.1 |
